Laboratory results as given in PubChem BioAssay AID1963866 (Molecular Pharmacology Branch, DTP, NCI, 2024).

System: PDC KRAS tumor spheroids with HUVEC/MSC, viability
Assay: Anticancer human tumor 349418-098-R-PDC patient-derived lung adenocarcinoma cell line growth inhibition [KRAS2]
Settings: for IC50: curve of first compound; for viability, T/C: stronger effect = lower value
How it was run: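 KRAS-mutant tumor cells were grown as spheroids with HUVEC endothelial cells and human MSCs as stroma. Targeted agents were tested alone and with KRAS pathway inhibitors. Doses started at or near clinical Cmax, or 10 microM, descending half-log.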

[1] = second compound 0.1 µM, first compound 0.01 µM
[2] = second compound 0.1 µM, first compound 0.0316 µM
[3] = second compound 0.1 µM, first compound 0.1 µM
[4] = second compound 0.1 µM, first compound 0.316 µM
[5] = second compound 0.1 µM, first compound 1 µM
[6] = second compound 0.1 µM, first compound 3.16 µM
[7] = second compound 0.316 µM, first compound 0.01 µM
[8] = second compound 0.316 µM, first compound 0.0316 µM
[9] = second compound 0.316 µM, first compound 0.1 µM
[10] = second compound 0.316 µM, first compound 0.316 µM
[11] = second compound 0.316 µM, first compound 1 µM
[12] = second compound 0.316 µM, first compound 3.16 µM
[13] = second compound 1 µM, first compound 0.01 µM
[14] = second compound 1 µM, first compound 0.0316 µM
[15] = second compound 1 µM, first compound 0.1 µM
[16] = second compound 1 µM, first compound 0.316 µM
[17] = second compound 1 µM, first compound 1 µM
[18] = second compound 1 µM, first compound 3.16 µM
[19] = second compound 3.16 µM, first compound 0.01 µM
[20] = second compound 3.16 µM, first compound 0.0316 µM
[21] = second compound 3.16 µM, first compound 0.1 µM
[22] = second compound 3.16 µM, first compound 0.316 µM
[23] = second compound 3.16 µM, first compound 1 µM
[24] = second compound 3.16 µM, first compound 3.16 µM
[25] = second compound 10 µM, first compound 0.01 µM
[26] = second compound 10 µM, first compound 0.0316 µM
[27] = second compound 10 µM, first compound 0.1 µM
[28] = second compound 10 µM, first compound 0.316 µM
[29] = second compound 10 µM, first compound 1 µM
[30] = second compound 10 µM, first compound 3.16 µM
[31] = second compound 0.1 µM, first compound 10 µM
[32] = second compound 0.316 µM, first compound 10 µM
[33] = second compound 1 µM, first compound 10 µM
[34] = second compound 3.16 µM, first compound 10 µM
[35] = second compound 10 µM, first compound 10 µM
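Further: spheroids exposed to compounds for seven days before readout.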

Structure (SMILES)	IC50 (second compound 0.1 µM) [nM]	IC50 (second compound 0.316 µM) [nM]	IC50 (second compound 1 µM) [nM]	IC50 (second compound 3.16 µM) [nM]	IC50 (second compound 10 µM) [nM]	viability, T/C [2] [%]	viability, T/C [3] [%]	viability, T/C [4] [%]	viability, T/C [5] [%]	viability, T/C [6] [%]	viability, T/C [8] [%]	viability, T/C [9] [%]	viability, T/C [10] [%]	viability, T/C [11] [%]	viability, T/C [12] [%]	viability, T/C [14] [%]	viability, T/C [15] [%]	viability, T/C [16] [%]	viability, T/C [17] [%]	viability, T/C [18] [%]	further results
CC1COCCN1c1cc(-c2ccnn2C)c2ccnc(-c3ccn[nH]3)c2n1 (stereo not given) + CC1OCC2(CCN(c3cnc(Sc4ccnc(N)c4Cl)c(N)n3)CC2)C1N	30.4	26.9	37.8	37.4	25.4	48.2	9.73	7	4.41	4.8	39.4	9.52	7.35	4.82	4.26	56.9	12.2	7.13	5.99	4.5	viability, T/C [1]: 98.1%; viability, T/C [7]: 115%; viability, T/C [13]: 117%; viability, T/C [19]: 97.7%; viability, T/C [20]: 56.8%; viability, T/C [21]: 10.1%; viability, T/C [22]: 6.94%; viability, T/C [23]: 4.63%; viability, T/C [24]: 4.81%; viability, T/C [25]: 89.6%; viability, T/C [26]: 40.6%; viability, T/C [27]: 9.52%; viability, T/C [28]: 5.38%; viability, T/C [29]: 4.95%; viability, T/C [30]: 4.71%
CCNC(=O)CC1N=C(c2ccc(Cl)cc2)c2cc(OC)ccc2-n2c(C)nnc21 (stereo not given) + CC1OCC2(CCN(c3cnc(Sc4ccnc(N)c4Cl)c(N)n3)CC2)C1N	112	133	148	183	196	106	50.3	28.4	11.3	3.22	103	58.8	23.6	10.1	2.91	136	60.9	28.8	8.35	2.56	viability, T/C [31]: 1.09%; viability, T/C [32]: 1.3%; viability, T/C [33]: 1.67%; viability, T/C [20]: 103%; viability, T/C [21]: 73.9%; viability, T/C [22]: 27.6%; viability, T/C [23]: 10.3%; viability, T/C [24]: 2.56%; viability, T/C [34]: 1.16%; viability, T/C [26]: 109%; viability, T/C [27]: 80%; viability, T/C [28]: 28.3%; viability, T/C [29]: 7.82%; viability, T/C [30]: 2.1%; viability, T/C [35]: 0.96%
Cn1nccc1Nc1nccc(-c2cc3c(s2)C(C)(C)N(CCN2CCOCC2)C3=O)n1 + CC1OCC2(CCN(c3cnc(Sc4ccnc(N)c4Cl)c(N)n3)CC2)C1N	54.2	44.6	32.5	36.4	< 31.6	68.8	27	17.7	8.51	5.52	61.4	23.7	7.24	6.49	4.43	51.1	18.4	8.88	4.35	4.16	viability, T/C [31]: 4.04%; viability, T/C [32]: 4.11%; viability, T/C [33]: 4.13%; viability, T/C [20]: 54.6%; viability, T/C [21]: 19.7%; viability, T/C [22]: 7.87%; viability, T/C [23]: 3.17%; viability, T/C [24]: 2.99%; viability, T/C [34]: 3.09%; viability, T/C [26]: 47.9%; viability, T/C [27]: 18.8%; viability, T/C [28]: 6.03%; viability, T/C [29]: 2.89%; viability, T/C [30]: 2.98%; viability, T/C [35]: 2.7%
CC(=O)OC12COC1CC(O)C1(C)C(=O)C(O)C3=C(C)C(OC(=O)C(O)C(NC(=O)OC(C)(C)C)c4ccccc4)CC(O)(C(OC(=O)c4ccccc4)C21)C3(C)C (stereo not given) + CNCc1ccccc1-c1csc(C(C)Nc2nc(C)nc3cc(OC)c(OC)cc23)c1	< 10	< 10	< 10	< 10	< 10	14.8	18.9	17.3	22	24.9	13.9	15.6	17.8	21	21.6	15.3	15	21.2	23.8	24.2	viability, T/C [1]: 13.4%; viability, T/C [7]: 10.7%; viability, T/C [13]: 11%; viability, T/C [19]: 8.03%; viability, T/C [20]: 0.13%; viability, T/C [21]: 0.09%; viability, T/C [22]: 0.15%; viability, T/C [23]: 0.1%; viability, T/C [24]: 23.6%; viability, T/C [25]: 0.19%; viability, T/C [26]: 0.12%; viability, T/C [27]: 0.12%; viability, T/C [28]: 0.17%; viability, T/C [29]: 22.6%; viability, T/C [30]: 0.21%
